Results published in patent publication US10508120B2, “TYK2 inhibitors and uses thereof” (Nimbus Lakshmi, Inc., priority 2017, dated 2019).
Like-named read-outs stand apart in the source and are kept apart here. Blank lines part the entries; values can stand above or below the molecule they belong to.

How the values were obtained:
[1] = target: Tyk2 kinase domain (DH1) (Homo sapiens (Human), UniProt P29597); assay: Tyk2 Radioactive Kinase Assay; assay type: biochemical; conditions: for inhibition at 10 µM: read-out: Tyk2 JH1% Inhibition @ 10 μM
Chain of Tyk2 kinase domain (DH1) (P29597 897-1176): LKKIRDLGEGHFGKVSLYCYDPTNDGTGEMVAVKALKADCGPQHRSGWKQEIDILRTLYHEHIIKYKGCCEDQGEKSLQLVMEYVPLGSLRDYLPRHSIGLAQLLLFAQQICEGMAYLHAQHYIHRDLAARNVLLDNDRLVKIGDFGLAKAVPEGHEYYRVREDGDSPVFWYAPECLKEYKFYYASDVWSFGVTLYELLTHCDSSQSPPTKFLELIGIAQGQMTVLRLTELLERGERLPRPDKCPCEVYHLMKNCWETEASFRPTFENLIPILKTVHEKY
Procedure, shortened: (§1)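 Single-point screen: 10 μM test compound, radioactive kinase read-out, percent inhibition reported for each kinase domain.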

[2] = target: JAK2 kinase domain (JH1) (Homo sapiens (Human), UniProt O60674); assay: JAK2 Radioactive Kinase Assay; assay type: biochemical; conditions: for inhibition at 10 µM: read-out: JAK2 JH1% Inhibition @ 10 μM
Chain of JAK2 kinase domain (JH1) (O60674 849-1124): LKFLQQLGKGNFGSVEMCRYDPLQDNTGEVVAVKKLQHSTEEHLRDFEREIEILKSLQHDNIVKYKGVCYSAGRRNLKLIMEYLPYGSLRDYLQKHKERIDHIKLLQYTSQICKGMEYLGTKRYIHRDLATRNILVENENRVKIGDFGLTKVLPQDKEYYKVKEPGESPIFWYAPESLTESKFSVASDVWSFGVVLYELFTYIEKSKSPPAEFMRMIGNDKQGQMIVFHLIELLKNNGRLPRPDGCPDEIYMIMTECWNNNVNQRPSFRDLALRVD
Procedure, shortened: as §1

[3] = target: human TYK2 (JH2domain-pseudokinase) (Homo sapiens (Human), UniProt P29597); assay: TYK2 JH2 Domain Binding Assay (KINOMEscan)
Chain of human TYK2 (JH2domain-pseudokinase) (P29597 556-888): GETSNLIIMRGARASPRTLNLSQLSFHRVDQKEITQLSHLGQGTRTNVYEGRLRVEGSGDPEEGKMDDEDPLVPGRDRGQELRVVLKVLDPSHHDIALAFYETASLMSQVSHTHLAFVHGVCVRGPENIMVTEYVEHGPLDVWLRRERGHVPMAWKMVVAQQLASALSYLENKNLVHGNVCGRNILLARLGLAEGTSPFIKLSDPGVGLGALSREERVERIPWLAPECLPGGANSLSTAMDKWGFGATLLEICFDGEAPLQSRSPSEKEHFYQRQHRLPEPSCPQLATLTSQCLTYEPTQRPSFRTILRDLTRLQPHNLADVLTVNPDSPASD
Procedure, shortened: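 Displacement of a DNA-tagged TYK2 JH2 fusion (human, aa G556–D888, HEK293 extract, <0.1 nM) from ligand-coated beads over 1 h at RT; binding buffer PBS/0.05% Tween 20/10 mM DTT/0.1% BSA.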

[4] = target: JAK2/JAK2 homdimeric complex (Homo sapiens (Human), UniProt O60674); assay: GM-CSF Induced pSTAT5 in Human PBMC; assay type: cell-based; conditions: GM-CSF 5 ng/mL for 20 minutes, pSTAT5 by MSD, read-out: PBMC_GMCSF_pSTAT5 IC50
Chain of JAK2/JAK2 homdimeric complex (O60674 whole entry): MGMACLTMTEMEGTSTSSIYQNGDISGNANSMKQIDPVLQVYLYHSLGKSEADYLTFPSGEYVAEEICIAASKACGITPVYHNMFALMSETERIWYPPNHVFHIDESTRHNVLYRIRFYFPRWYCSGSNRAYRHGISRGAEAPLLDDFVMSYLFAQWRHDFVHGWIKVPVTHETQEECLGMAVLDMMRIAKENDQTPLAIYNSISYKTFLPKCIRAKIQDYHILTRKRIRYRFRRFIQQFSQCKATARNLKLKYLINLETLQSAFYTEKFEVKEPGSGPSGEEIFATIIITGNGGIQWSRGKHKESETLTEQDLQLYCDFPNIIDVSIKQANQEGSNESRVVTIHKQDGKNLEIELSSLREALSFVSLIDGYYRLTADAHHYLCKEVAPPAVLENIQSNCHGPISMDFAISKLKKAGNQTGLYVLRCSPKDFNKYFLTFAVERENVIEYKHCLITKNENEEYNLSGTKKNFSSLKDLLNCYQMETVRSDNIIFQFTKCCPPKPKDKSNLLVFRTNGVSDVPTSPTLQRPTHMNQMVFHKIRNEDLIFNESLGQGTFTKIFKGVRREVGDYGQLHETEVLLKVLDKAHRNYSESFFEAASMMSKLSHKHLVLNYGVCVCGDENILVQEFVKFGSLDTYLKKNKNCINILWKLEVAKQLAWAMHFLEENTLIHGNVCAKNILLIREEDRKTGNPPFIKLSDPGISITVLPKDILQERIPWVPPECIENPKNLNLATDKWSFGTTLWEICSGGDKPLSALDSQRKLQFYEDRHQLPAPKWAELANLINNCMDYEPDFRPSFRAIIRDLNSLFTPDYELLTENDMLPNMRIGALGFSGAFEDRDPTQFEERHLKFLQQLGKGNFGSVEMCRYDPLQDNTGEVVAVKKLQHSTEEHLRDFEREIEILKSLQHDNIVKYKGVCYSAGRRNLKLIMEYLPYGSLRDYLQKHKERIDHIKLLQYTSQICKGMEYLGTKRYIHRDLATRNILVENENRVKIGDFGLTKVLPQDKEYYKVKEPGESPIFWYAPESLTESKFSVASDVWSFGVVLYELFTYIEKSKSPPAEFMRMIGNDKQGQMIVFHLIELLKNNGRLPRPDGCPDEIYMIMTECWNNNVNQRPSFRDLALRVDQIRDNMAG
Chain of JAK2/JAK2 homdimeric complex (P32927 17-897 partner): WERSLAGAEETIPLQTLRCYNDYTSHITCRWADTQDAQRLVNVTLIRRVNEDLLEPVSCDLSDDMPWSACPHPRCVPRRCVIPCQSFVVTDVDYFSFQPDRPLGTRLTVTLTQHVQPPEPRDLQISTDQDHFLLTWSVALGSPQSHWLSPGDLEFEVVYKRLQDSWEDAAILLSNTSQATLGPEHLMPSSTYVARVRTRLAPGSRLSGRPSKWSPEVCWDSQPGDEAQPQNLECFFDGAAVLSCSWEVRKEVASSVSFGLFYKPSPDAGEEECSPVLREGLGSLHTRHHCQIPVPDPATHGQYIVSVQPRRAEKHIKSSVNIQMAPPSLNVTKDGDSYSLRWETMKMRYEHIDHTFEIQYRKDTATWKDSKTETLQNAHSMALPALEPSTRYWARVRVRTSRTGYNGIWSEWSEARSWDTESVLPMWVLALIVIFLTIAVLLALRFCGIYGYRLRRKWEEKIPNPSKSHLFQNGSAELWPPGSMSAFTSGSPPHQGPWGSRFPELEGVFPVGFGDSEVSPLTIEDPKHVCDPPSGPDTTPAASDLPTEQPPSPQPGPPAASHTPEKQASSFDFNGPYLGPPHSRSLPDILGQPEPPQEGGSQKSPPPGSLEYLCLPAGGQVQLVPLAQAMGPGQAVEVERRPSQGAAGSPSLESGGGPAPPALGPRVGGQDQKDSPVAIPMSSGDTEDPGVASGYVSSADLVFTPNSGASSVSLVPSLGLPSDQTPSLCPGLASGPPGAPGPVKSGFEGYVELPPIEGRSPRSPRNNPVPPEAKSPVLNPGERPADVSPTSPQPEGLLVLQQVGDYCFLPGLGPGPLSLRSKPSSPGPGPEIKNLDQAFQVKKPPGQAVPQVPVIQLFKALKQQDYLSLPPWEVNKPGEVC

SMILES: CNc1cc(Nc2cccn([C@H]3CC[C@H](OC)CC3)c2=O)nc2c(C(=O)N[C@H]3CC[C@@H]3OC)cnn12 [I-1062]
IC50 [4]: > 50 µM

SMILES: CNc1cc(Nc2cccn(-c3ccccn3)c2=O)nc2c(C(=O)N[C@@H]3CC[C@H]3OC)cnn12 (stereo in doubt) [I-816, N-(2-methoxycyclobutyl)-7-(methylamino)-5-((2-oxo-2H-[1,2′-bipyridin]-3-yl)amino)pyrazolo[1,5-a]pyrimidine-3-carboxamide]
inhibition at 10 µM [1]: < 50%
inhibition at 10 µM [2]: < 50%
IC50 [4]: > 2.5 µM

SMILES: CNc1cc(Nc2cccn([C@@H]3CCCOC3)c2=O)nc2c(C(=O)NC3CCC3OC)cnn12 (mixture of isomers) [I-814, N-(-2-methoxycyclobutyl)-7-(methylamino)-5-((2-oxo-1-((R)-tetrahydro-2H-pyran-3-yl)-1,2-dihydropyridin-3-yl)amino)pyrazolo[1,5-a]pyrimidine-3-carboxamide]
inhibition at 10 µM ([2]; 10 μM compound, 10 μM ATP): < 50%
IC50 [4]: > 50 µM

SMILES: CNc1cc(Nc2cccn(C(C)C)c2=O)nc2c(C(=O)N[C@@H]3CC[C@H]3OC)cnn12 [I-917]
IC50 [4]: > 50 µM

SMILES: CNc1cc(Nc2cccn(-c3nc(C)co3)c2=O)nc2c(C(=O)N[C@H]3CC[C@@H]3OC)cnn12 [I-975]
IC50 [4]: > 50 µM

SMILES: CNc1cc(Nc2cccn(-c3cnc(C)o3)c2=O)nc2c(C(=O)N[C@@H]3CC[C@H]3OC)cnn12 [I-895]
IC50 [4]: > 50 µM

SMILES: CNc1cc(Nc2cccn([C@@H]3CCCOC3)c2=O)nc2c(C(=O)N[C@@H]3CC[C@H]3OC)cnn12 [I-902, N-((1R,2R)-2-methoxycyclobutyl)-7-(methylamino)-5-((2-oxo-1-((R)-tetrahydro-2H-pyran-3-yl)-1,2-dihydropyridin-3-yl)amino)pyrazolo[1,5-a]pyrimidine-3-carboxamide]
JAK2 JH1% Inhibition @ 10 μM ([2]; 10 μM compound, 10 μM ATP): A (percent inhibition at 10 μM lower than 50)
IC50 [4]: > 50 µM

SMILES: CNc1cc(Nc2cccn([C@H]3CCC[C@@H](OC)C3)c2=O)nc2c(C(=O)N[C@@H]3CC[C@H]3O)cnn12 [I-993]
Tyk2 JH1% Inhibition @ 10 μM ([1]; 10 μM compound, 10 μM ATP): A (percent inhibition at 10 μM lower than 50)
JAK2 JH1% Inhibition @ 10 μM ([2]; 10 μM compound, 10 μM ATP): A (percent inhibition at 10 μM lower than 50)
IC50 [4]: > 50 µM

SMILES: CNc1cc(Nc2cccn(C(C)C)c2=O)nc2c(C(=O)N[C@H]3CC[C@@H]3OC)cnn12 [I-980]
IC50 [4]: > 50 µM

SMILES: CNc1cc(Nc2cccn(C3CCOCC3)c2=O)nc2c(C(=O)N[C@H]3CC[C@@H]3OC)cnn12 [I-1014]
IC50 [4]: > 50 µM

SMILES: CNc1cc(Nc2cccn(-c3ccccn3)c2=O)nc2c(C(=O)N[C@H]3CC[C@@H]3O)cnn12 [I-971]
inhibition at 10 µM ([1]; 10 μM compound, 10 μM ATP): < 50%
inhibition at 10 µM ([2]; 10 μM compound, 10 μM ATP): < 50%
IC50 [4]: > 50 µM

SMILES: CNc1cc(Nc2cccn(-c3ccccn3)c2=O)nc2c(C(=O)N[C@@H]3CC[C@H]3OC)cnn12 [I-908, N-((1R,2R)-2-methoxycyclobutyl)-7-(methylamino)-5-((2-oxo-2H-[1,2′-bipyridin]-3-yl)amino)pyrazolo[1,5-a]pyrimidine-3-carboxamide]
Tyk2 JH1% Inhibition @ 10 μM ([1]; 10 μM compound, 10 μM ATP): A (percent inhibition at 10 μM lower than 50)
JAK2 JH1% Inhibition @ 10 μM ([2]; 10 μM compound, 10 μM ATP): A (percent inhibition at 10 μM lower than 50)
IC50 [4]: > 50 µM

SMILES: CNc1cc(Nc2cccn([C@@H]3CCC[C@@H](OC)C3)c2=O)nc2c(C(=O)NC3CC3)cnn12 [I-957]
Tyk2 JH1% Inhibition @ 10 μM ([1]; 10 μM compound, 10 μM ATP): A (percent inhibition at 10 μM lower than 50)
JAK2 JH1% Inhibition @ 10 μM ([2]; 10 μM compound, 10 μM ATP): A (percent inhibition at 10 μM lower than 50)
IC50 [4]: > 50 µM

SMILES: CNc1cc(Nc2cccnc2OC)nc2c(C(=O)NC3CC3)cnn12 [I-8]
IC50 [4]: > 50 µM

SMILES: CNc1cc(Nc2cccnc2OC)nc2c(C(=O)NOC(C)(C)C)cnn12 [I-612, N-(tert-butoxy)-5-((2-methoxypyridin-3-yl)amino)-7-(methylamino) pyrazolo[1,5-a]pyrimidine-3-carboxamide]
inhibition at 10 µM [2]: < 50%
IC50 [4]: > 50 µM

SMILES: CNc1cc(Nc2cccn(-c3ncco3)c2=O)nc2c(C(=O)N[C@@H]3CC[C@H]3OC)cnn12 [I-1398]
IC50 [4]: > 50 µM

SMILES: CCONC(=O)c1cnn2c(NC)cc(Nc3cccn(-c4ncccc4F)c3=O)nc12 [I-798, N-ethoxy-5-((3′-fluoro-2-oxo-2H-[1,2′-bipyridin]-3-yl)amino)-7-(methylamino) pyrazolo[1,5-a]pyrimidine-3-carboxamide]
inhibition at 10 µM [2]: < 50%
IC50 [4]: > 50 µM

SMILES: [2H]C([2H])([2H])Oc1ncccc1Nc1cc(NC)n2ncc(C(=O)NCCC3(O)CC3)c2n1 [I-470, N-(2-(1-hydroxycyclopropyl)ethyl)-5-((2-(methoxy-d3)pyridin-3-yl)amino)-7-(methylamino)pyrazolo[1,5-a]pyrimidine-3-carboxamide]
inhibition at 10 µM ([1]; compound at 10 μM, ATP 10 μM): < 50%
inhibition at 10 µM ([2]; compound at 10 μM, ATP 10 μM): < 50%
Kd [3]: < 0.0002 µM

SMILES: CNc1cc(Nc2cccn([C@@H]3CCC[C@@H](OC)C3)c2=O)nc2c(C(=O)NCC3(CO)CC3)cnn12 [I-1087]
inhibition at 10 µM ([1]; 10 μM compound, 10 μM ATP): < 50%
inhibition at 10 µM ([2]; 10 μM compound, 10 μM ATP): < 50%
Kd [3]: < 0.0002 µM

SMILES: CNc1cc(Nc2cccn([C@@H]3CCCC[C@@H]3OC)c2=O)nc2c(C(=O)N[C@@H]3CC[C@H]3OC)cnn12 [I-1128]
inhibition at 10 µM ([1]; 10 μM compound, 10 μM ATP): < 50%
inhibition at 10 µM ([2]; 10 μM compound, 10 μM ATP): < 50%
Kd [3]: 0.001 to 0.01 µM

SMILES: [2H]C([2H])([2H])Oc1ncccc1Nc1cc(NC)n2ncc(C(=O)NCCC(C)(C)O)c2n1 [I-421, N-(3-hydroxy-3-methylbutyl)-5-((2-(methoxy-d3)pyridin-3-yl)amino)-7-(methylamino)pyrazolo[1,5-a]pyrimidine-3-carboxamide]
inhibition at 10 µM ([1]; compound at 10 μM, ATP 10 μM): < 50%
inhibition at 10 µM ([2]; compound at 10 μM, ATP 10 μM): < 50%
Kd [3]: 0.0002 to 0.001 µM

SMILES: CNc1cc(Nc2cccn([C@H]3CCC[C@H](OC)C3)c2=O)nc2c(C(=O)N[C@@H]3C[C@@H]3F)cnn12 [I-882]
inhibition at 10 µM ([1]; 10 μM compound, 10 μM ATP): < 50%
inhibition at 10 µM ([2]; 10 μM compound, 10 μM ATP): < 50%
Kd [3]: < 0.0002 µM

SMILES: CNc1cc(Nc2cccn(-c3cnc(C)o3)c2=O)nc2c(C(=O)NC3CC3)cnn12 [I-717]
inhibition at 10 µM ([1]; compound at 10 μM, ATP 10 μM): < 50%
inhibition at 10 µM ([2]; compound at 10 μM, ATP 10 μM): < 50%
Kd [3]: < 0.0002 µM

SMILES: CNc1cc(Nc2cc(C)nc(N3CCCC3=O)c2)nc2c(C(N)=O)cnn12 [I-54]
inhibition at 10 µM ([1]; compound at 10 μM, ATP 10 μM): < 50%
inhibition at 10 µM ([2]; compound at 10 μM, ATP 10 μM): < 50%
Kd [3]: 0.001 to 0.01 µM

SMILES: CNc1cc(Nc2cccn(-c3ncccc3F)c2=O)nc2c(C(=O)NC3CC3)cnn12 [I-143]
IC50 [4]: > 50 µM

Now from value to molecule, other results behind:

inhibition at 10 µM ([1]; 10 μM compound, 10 μM ATP): < 50%
inhibition at 10 µM ([2]; 10 μM compound, 10 μM ATP): < 50%
Kd [3]: < 0.0002 µM
IC50 [4]: > 50 µM
SMILES: CNc1cc(Nc2cccn([C@H]3CC[C@@H]3O)c2=O)nc2c(C(=O)N[C@H]3CC[C@@H]3OC)cnn12 [I-1094]

IC50 [4]: > 50 µM
SMILES: CNc1cc(Nc2cccn(-c3cncc(F)c3)c2=O)nc2c(C(=O)N[C@H]3CC[C@@H]3OC)cnn12 [I-984]
JAK2 JH1% Inhibition @ 10 μM ([2]; 10 μM compound, 10 μM ATP): A (percent inhibition at 10 μM lower than 50)

inhibition at 10 µM ([1]; 10 μM compound, 10 μM ATP): < 50%
inhibition at 10 µM ([2]; 10 μM compound, 10 μM ATP): < 50%
Kd [3]: < 0.0002 µM
IC50 [4]: > 2.5 µM
SMILES: CNc1cc(Nc2cccn(-c3ccccc3F)c2=O)nc2c(C(=O)N[C@H]3CC[C@H]3O)cnn12 [I-1035]

inhibition at 10 µM ([1]; 10 μM compound, 10 μM ATP): < 50%
inhibition at 10 µM ([2]; 10 μM compound, 10 μM ATP): < 50%
Kd [3]: < 0.0002 µM
IC50 [4]: > 12.5 µM
SMILES: CNc1cc(Nc2cc(Cl)cn(-c3cnn(C)c3F)c2=O)nc2c(C(=O)NC3CC3)cnn12 [I-955]

inhibition at 10 µM ([2]; 10 μM compound, 10 μM ATP): < 50%
IC50 [4]: > 12.5 µM
SMILES: CNc1cc(Nc2cccn([C@H]3CCCOC3)c2=O)nc2c(C(=O)N[C@@H]3CC[C@H]3OC)cnn12 [I-815]

IC50 [4]: > 50 µM
SMILES: CNc1cc(Nc2cc(C)cc(C)c2)nc2c(C(=O)NC3CC3)cnn12 [I-1, N-cyclopropyl-5-((3,5-dimethylphenyl)amino)-7-(methylamino)pyrazolo[1,5-a]pyrimidine-3-carboxamide]

inhibition at 10 µM ([2]; 10 μM compound, 10 μM ATP): < 50%
IC50 [4]: > 50 µM
SMILES: CNc1cc(Nc2cccn([C@H]3CCCOC3)c2=O)nc2c(C(=O)N[C@H]3CC[C@@H]3OC)cnn12 [I-877]

IC50 [4]: > 50 µM
SMILES: CNc1cc(Nc2cccn(-c3cccnc3)c2=O)nc2c(C(=O)N[C@H]3CC[C@@H]3OC)cnn12 [I-864]

inhibition at 10 µM ([1]; 10 μM compound, 10 μM ATP): < 50%
inhibition at 10 µM ([2]; 10 μM compound, 10 μM ATP): < 50%
IC50 [4]: > 50 µM
SMILES: CNc1cc(Nc2cccn([C@H]3[C@@H]4COC[C@@H]43)c2=O)nc2c(C(=O)N[C@H]3CC[C@@H]3OC)cnn12 [I-1088]

IC50 [4]: > 50 µM
SMILES: CNc1cc(Nc2cccn([C@H]3CC[C@H](OC)CC3)c2=O)nc2c(C(=O)N[C@@H]3CC[C@H]3OC)cnn12 [I-1378]

IC50 [4]: > 12.5 µM
SMILES: CNc1cc(Nc2cccn(-c3nc(C)co3)c2=O)nc2c(C(=O)N[C@H]3CC[C@@H]3OC)cnn12 [I-890]

IC50 [4]: > 2.5 µM
SMILES: CNc1cc(Nc2cccn(-c3ccc(F)cc3)c2=O)nc2c(C(=O)NC3CC3)cnn12 [I-107, N-cyclopropyl-5-((1-(4-fluorophenyl)-2-oo-1,2-dihydropyridin-3-yl)amino)-7-(methylamino)pyrazolo[1,5-a]pyrimidine-3-carboxamide]

IC50 [4]: > 2.5 µM
SMILES: CNc1cc(Nc2cccn(-c3ccc(F)cn3)c2=O)nc2c(C(=O)N[C@@H]3CC[C@H]3OC)cnn12 [I-817]

IC50 [4]: > 2.5 µM
SMILES: CNc1cc(Nc2cccn(-c3ccc(F)cn3)c2=O)nc2c(C(=O)N[C@H]3CC[C@@H]3OC)cnn12 [I-926]

IC50 [4]: > 12.5 µM
SMILES: [2H]C([2H])([2H])Oc1ncccc1Nc1cc(NC)n2ncc(C(=O)NC3CC3)c2n1 [I-175, N-cyclopropyl-5-((2-(methoxy-d3)pyridin-3-yl)amino)-7-(methylamino) pyrazolo[1,5-a]pyrimidine-3-carboxamide]
